Source: article PMC3514216, “SRC Homology 2 Domain Binding Sites in Insulin, IGF-1 and FGF receptor mediated signaling networks reveal an extensive potential interactome” (Cell Communication and Signaling : CCS, 2012)

Columns and labels:
Shb SH2 domain = Shb SH2 domain (Homo sapiens, UniProt Q15464); assay: SPOT peptide array; assay type: binding; conditions: GST-SH2 0.25 μM
Description: (§1) The use of addressable peptide arrays is a reproducible and semi-quantitative approach that has been extensively validated for studying protein interactions with peptide ligands. To investigate connections between SH2 domain proteins and their putative phosphorylated docking sites on cell surface receptors, we developed addressable arrays consisting of 192 phosphotyrosine peptides. This peptide set was assembled using 71 phosphotyrosine peptide motifs corresponding to all of the cytoplasmic tyrosine residues within the FGF receptors (FGFR1-4), insulin receptor (InsR) and IGF-1 receptor (IGF-1R) (Figure 1A). Activation of these receptors results in the phosphorylation of associated scaffold proteins, and so 75 phosphotyrosine peptides corresponding to a comprehensive list of tyrosine residues within insulin receptor substrates (IRS-1 and IRS-2) and fibroblast receptor substrates (FRS-2 and FRS-3) were included. In addition, 33 phosphotyrosine peptides were incorporated from the downstream signaling proteins PLC-γ1, p130Cas (BCAR1) and p62DOK1. […] These control peptides provide a reference and establish the empirical cut-off for designated binding interactions (Table 1). No discrimination was made against peptides on the basis of reported phosphorylation state in order to examine a diverse and unbiased set of motifs. The resulting set of 192 phosphotyrosine peptides and their corresponding position in the proteins of origin is noted in Additional file 1: Table S1. Addressable arrays were synthesized as membrane-bound 11-mer peptides using the SPOT synthesis technique. While the majority of SH2 domains recognize residues C-terminal to the phosphotyrosine in their cognate peptide ligands, additional contacts between SH2 domains and residues N-terminal to the phosphotyrosine are observed for the SH2 domain of Sh2d1a (SAP) and cannot be ruled out in other cases. Peptides were synthesized with six flanking residues C-terminal to the phosphotyrosine and four residues N-terminal to the phosphotyrosine.
(§2) SH2 domains were arrayed as GST fusion proteins and detected using anti-GST primary antibodies and near-infrared labeled secondary antibodies. In an effort to present a dataset with minimal false positives, we chose an empirical cutoff based on the array average across all peptide spots to classify interactions (Figure 1A). In cases where the intensity of the signal for an individual SH2-domain binding event exceeded the mean intensity of all the peptides on the membrane by three-fold were scored as “array positives” [22]. Non-binding was judged in cases where the intensity of a spot was less than the mean intensity of all spots on the membrane and these were scored as “array negatives”. Peptides with signal intensities between 1X and 3X mean were scored as “indeterminate” and ascribed as neither array positive binding interactions nor array-negative non-binders. […] This signature may be indicative of promiscuity differences between phosphopeptides or there may be a subset of peptides which interact in a nonspecific fashion with either the GST fusion tag or one of the antibodies used for detection, resulting in false positives. Consistent with our goal of reducing the errors associated with identifying false-positives, we probed three separate arrays with three separate preps of the GST fusion tag alone. Potentially non-specificly interacting peptides (so-called ‘sticky’ peptides) were identified as any that bound to GST with above mean intensity in two out of three separate trials. This approach identifies any peptides which interact with GST or either of the recognition antibodies, a known confounding factor for downstream analysis. This conservative approach allows us to score many significant peptides as ‘binders’ which may have been indeterminate before when incorporating the ‘sticky’ peptides into the array average. […]

[1] = tested on: Plcγ SH2 domain (N or C not specified); assay: SPOT peptide array; assay type: binding; conditions: GST-SH2 0.25 μM, membrane-bound peptide, 1 mM DTT, LiCor read-out
Description: as §1, §2

Plcγ-N SH2 domain = assay: SPOT peptide array; assay type: binding; conditions: spot intensity as factor of array mean; GST-SH2 0.25 μM
Description: as §1, §2

Plcγ-C SH2 domain = assay: SPOT peptide array; assay type: binding; conditions: spot intensity as factor of array mean; GST-SH2 0.25 μM
Description: as §1, §2

Fyn SH2 domain = assay: SPOT peptide array; assay type: binding; conditions: GST-SH2 0.25 μM
Description: as §1, §2

Ptpn11_N SH2 domain [2] = biological target: T1, Ptpn11_N SH2 domain (Homo sapiens, UniProt Q06124); assay: SPOT peptide array; assay type: binding; conditions: GST-SH2 0.25 μM
T1 sequence (Q06124 6-102 limits assumed): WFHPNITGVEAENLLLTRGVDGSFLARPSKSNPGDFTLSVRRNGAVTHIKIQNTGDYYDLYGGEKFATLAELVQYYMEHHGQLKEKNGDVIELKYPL
Description: as §1, §2

Ptpn11_C SH2 domain = assay: SPOT peptide array; assay type: binding; conditions: GST-SH2 0.25 μM
Description: as §1, §2

PI3K1_N SH2 domain [3] = biological target: T2, PI3K1_N SH2 domain (Homo sapiens, UniProt P27986); set-up: method as in PMID 8384875; conditions: cited from earlier work
PI3K1_N SH2 domain [4] = biological target: T2, PI3K1_N SH2 domain; assay: SPOT peptide array; assay type: binding; conditions: GST-SH2 0.25 μM, membrane-bound peptide, 1 mM DTT, LiCor read-out
Description: as §1, §2

Sh2b SH2 domain = Sh2b SH2 domain (Homo sapiens, UniProt Q9NRF2); assay: SPOT peptide array; assay type: binding; conditions: GST-SH2 0.25 μM
Description: as §1, §2

Ptpn11_N SH2 domain [5] = biological target: T1, Ptpn11_N SH2 domain; set-up: method as in 5 sources, one per row (each row's own in cited_ref): ref [107] = [107]; PMID 8144631; Case RD Piccione E Wolf G Benett AM Lechleider RJ Neel BG Shoelson SE SH-PTP2/Syp SH2 domain binding specificity is defined by direct interactions with platelet-derived growth factor beta-receptor, ep ||| ref [107, 108] = [107]; PMID 8144631; Case RD Piccione E Wolf G Benett AM Lechleider RJ Neel BG Shoelson SE SH-PTP2/Syp SH2 domain binding specificity is defined by direct interactions with platelet-derived growth factor beta-receptor, ep || [108]; PMID 7504175; doi:10.1128/mcb.13.12.7418-7428.1993; Sun XJ Crimmins DL Myers MG Jr Miralpeix M White MF Pleiotropic insulin signals are engaged by multisite phosphorylation of IRS-1 Mol Cell Biol 1993 13 7418 7428 7504175 10.1128/mcb.13.12.7418-7428.19 ||| ref [95, 108, 110] = [95]; PMID 9422724; doi:10.1074/jbc.273.2.729; Ottinger EA Botfield MC Shoelson SE Tandem SH2 domains confer high specificity in tyrosine kinase signaling J Biol Chem 1998 273 729 735 9422724 10.1074/jbc.273.2.729 || [108]; PMID 7504175; doi:10.1128/mcb.13.12.7418-7428.1993; Sun XJ Crimmins DL Myers MG Jr Miralpeix M White MF Pleiotropic insulin signals are engaged by multisite phosphorylation of IRS-1 Mol Cell Biol 1993 13 7418 7428 7504175 10.1128/mcb.13.12.7418-7428.19 || [110]; PMID 9756938; doi:10.1074/jbc.273.41.26908; Myers MG Jr Mendez R Shi P Pierce JH Rhoads R White MF The COOH-terminal tyrosine phosphorylation sites on IRS-1 bind SHP-2 and negatively regulate insulin signaling J Biol Chem 1998 273 26908 26914 9 ||| ref 107 (IRS-1 Y896 also 108) ||| ref 95, 108, 110 = [95]; PMID 9422724; doi:10.1074/jbc.273.2.729; Ottinger EA Botfield MC Shoelson SE Tandem SH2 domains confer high specificity in tyrosine kinase signaling J Biol Chem 1998 273 729 735 9422724 10.1074/jbc.273.2.729 || [108]; PMID 7504175; doi:10.1128/mcb.13.12.7418-7428.1993; Sun XJ Crimmins DL Myers MG Jr Miralpeix M White MF Pleiotropic insulin signals are engaged by multisite phosphorylation of IRS-1 Mol Cell Biol 1993 13 7418 7428 7504175 10.1128/mcb.13.12.7418-7428.19 || [110]; PMID 9756938; doi:10.1074/jbc.273.41.26908; Myers MG Jr Mendez R Shi P Pierce JH Rhoads R White MF The COOH-terminal tyrosine phosphorylation sites on IRS-1 bind SHP-2 and negatively regulate insulin signaling J Biol Chem 1998 273 26908 26914 9; conditions: ref 107 (IRS-1 Y896 also 108); read-out: Relative affinity (IC50); cited from earlier work
Ptpn11_N SH2 domain [6] = biological target: T1, Ptpn11_N SH2 domain; assay: Fluorescence polarization solution binding; conditions: Rhodamine B-labeled peptide, GST-SH2, Beacon 2000, read-out: Affinity (KD)
Description: To verify the binding results obtained from addressable peptide arrays we employed an orthogonal method of determining SH2 interactions with peptide ligands. We measured the dissociation constants of 60 binary SH2-peptide pairs in solution by fluorescence polarization (Table 2, Additional file 2: Figures S3A-C).
Peptides were synthesized using FMOC-chemistry onto pre-loaded tenta-gel resins. Peptides were then labeled with Rhodamine B (Abbey Color) and then cleaved using trifluoroacetic acid. Peptides were lyophilized and then purified using a LC/MS (Agilent 2100). Dissociation constants were measured using the Beacon 2000 (Invitrogen) as previously described.
Binding Affinities determined by Fluorescence Polarization. Rhodamine B-labeled peptides were mixed with varying concentrations of GST-tagged SH2 domains. Fluorescence polarization measurements were read on a Beacon 2000 (Invitrogen). The curves were fit to a Michaelis-Menten equation to calculate the dissociation constant, KD. […] (C) Affinity measurements that fell below the 2X mean intensity and were considered array negative on the SPOT array.

Crk SH2 domain = Crk SH2 domain (Homo sapiens, UniProt P46108); set-up: method as in earlier work; conditions: SH2 protein microarray; N.B. = non binding; read-out: Protein Microarray (Macbeath) – KD; cited from earlier work
CrkL SH2 domain = CrkL SH2 domain (Homo sapiens, UniProt P46109); set-up: method as in earlier work; conditions: SH2 protein microarray; N.B. = non binding; read-out: Protein Microarray (Macbeath) – KD; cited from earlier work
Abl2 SH2 domain = biological target: T3, Abl2 SH2 domain (Homo sapiens, UniProt P42684); set-up: method as in earlier work; conditions: SH2 protein microarray; N.B. = non binding; read-out: Protein Microarray (Macbeath) – KD; cited from earlier work
T3 sequence (P42684 173-263 limits assumed): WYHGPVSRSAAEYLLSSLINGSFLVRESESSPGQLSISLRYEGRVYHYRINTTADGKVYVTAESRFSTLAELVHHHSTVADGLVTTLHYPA

panel of 50 SH2 domains = assay: SPOT peptide array probed with each of 50 GST-SH2 domains; assay type: binding; conditions: SH2 domains with intensity >3X array mean; GST-SH2 0.25 μM, 1 mM DTT
Method in brief: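 Membrane SPOT arrays of 192 phosphotyrosine 11-mer peptides (four residues N-terminal, six C-terminal to pTyr) probed with GST-SH2 fusions, detected by anti-GST plus near-infrared secondary antibody. Spots >3-fold array mean scored positive, below mean negative, 1–3× indeterminate; peptides binding GST alone above mean in two of three trials flagged as sticky.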

[7] = membrane-bound peptide, 1 mM DTT, LiCor read-out
[8] = spot intensity as factor of array mean

Sequence of Shb SH2 domain (Q15464 410-504 limits assumed): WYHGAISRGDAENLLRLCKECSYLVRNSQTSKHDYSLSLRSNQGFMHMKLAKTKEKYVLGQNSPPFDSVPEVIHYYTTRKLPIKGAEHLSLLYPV
T2 sequence (P27986 333-428 limits assumed): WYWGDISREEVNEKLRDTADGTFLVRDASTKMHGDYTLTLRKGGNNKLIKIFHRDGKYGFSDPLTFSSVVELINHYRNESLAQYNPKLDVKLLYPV
Sequence of Crk SH2 domain (P46108 13-118 limits assumed): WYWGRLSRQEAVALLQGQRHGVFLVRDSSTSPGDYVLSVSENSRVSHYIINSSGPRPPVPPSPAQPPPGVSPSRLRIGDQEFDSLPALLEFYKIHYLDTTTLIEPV
Sequence of CrkL SH2 domain (P46109 14-102 limits assumed): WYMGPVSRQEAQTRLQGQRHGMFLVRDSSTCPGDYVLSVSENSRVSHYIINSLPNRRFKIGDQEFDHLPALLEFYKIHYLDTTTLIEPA

## SNQEpYLDLSMP [11-mer phosphotyrosine peptide, FGFR1 (Y766)]
Shb SH2 domain; [7]
  Array positive: No (Peptide spots with average intensity values between 1X-3X the array mean were defined as ‘indeterminate’. Those with intensities below 1X mean were defined as array negative)
Shb SH2 domain; [8]
  Peptide array intensity (X mean): 0.45 X Mean
[1]
  Array positive: No (Peptide spots with average intensity values between 1X-3X the array mean were defined as ‘indeterminate’. Those with intensities below 1X mean were defined as array negative)
Plcγ-N SH2 domain
  Peptide array intensity (X mean): 0.52 X Mean
Plcγ-C SH2 domain
  Peptide array intensity (X mean): 0.21 X Mean

## DLSApYASISFQ [11-mer phosphotyrosine peptide, IRS-1 (Y1229)]
Fyn SH2 domain; [7]
  Array positive: No (Peptide spots with average intensity values between 1X-3X the array mean were defined as ‘indeterminate’. Those with intensities below 1X mean were defined as array negative)
Fyn SH2 domain; [8]
  Peptide array intensity (X mean): 0.48 X Mean
Ptpn11_N SH2 domain [2]; [7]
  Array positive: No (Peptide spots with average intensity values between 1X-3X the array mean were defined as ‘indeterminate’. Those with intensities below 1X mean were defined as array negative)
Ptpn11_N SH2 domain [2]; [8]
  Peptide array intensity (X mean): 2.78 X Mean
Ptpn11_C SH2 domain; [7]
  Array positive: No (Peptide spots with average intensity values between 1X-3X the array mean were defined as ‘indeterminate’. Those with intensities below 1X mean were defined as array negative)
Ptpn11_C SH2 domain; [8]
  Peptide array intensity (X mean): 1.59 X Mean

## GSGDpYMPMSPK [11-mer phosphotyrosine peptide, printed as IRS-1 (Y612); footnote says Y632]
PI3K1_N SH2 domain [3]
  Relative affinity (ID50): ID50 = 0.7-1.1 μM
PI3K1_N SH2 domain [4]
  Array positive: No (Peptide spots with average intensity values between 1X-3X the array mean were defined as ‘indeterminate’. Those with intensities below 1X mean were defined as array negative)

## THDLYMIMREA [11-mer peptide, FGFR3 (Y724)]
Sh2b SH2 domain; [7]
  Array positive: No (Peptide spots with average intensity values between 1X-3X the array mean were defined as ‘indeterminate’. Those with intensities below 1X mean were defined as array negative)
Sh2b SH2 domain; [8]
  Peptide array intensity (X mean): 0.44 X Mean

## ELSNpYICMGGK (ELSNYICMGGK) [11-mer phosphotyrosine peptide, IRS-1 (Y465)]
Ptpn11_N SH2 domain [5]
  IC50: 48000 ± 16000 nM

## CC(C)[C@H](NC(=O)[C@H](CC(=O)O)NC(=O)[C@H](CCC(=O)O)NC(=O)[C@H](C)N)C(=O)N[C@@H](Cc1ccc(OP(=O)(O)O)cc1)C(=O)N[C@@H](CC(=O)O)C(=O)N[C@H](C(=O)N1CCC[C@H]1C(=O)N1CCC[C@H]1C(=O)N1CCC[C@H]1C(=O)N[C@@H](C)C(=O)O)C(C)C [AEDVpYDVPPPA]
Ptpn11_N SH2 domain [6]
  Kd: > 50000 nM

## SIEEpYTEMMPA (SIEEYTEMMPA) [11-mer phosphotyrosine peptide, IRS-1 (Y551)]
Ptpn11_N SH2 domain [5]
  IC50: 11000 ± 1000 nM

## ARDIHHIDYpYKKTTNGRD (ARDIHHIDYYKKTTNGRD)
Crk SH2 domain
  Kd: 1110 nM

## SSKDLVSCApYQVARGMED (SSKDLVSCAYQVARGMED)
CrkL SH2 domain
  Kd: 240 nM
Crk SH2 domain
  Kd: 260 nM
Abl2 SH2 domain
  Kd: 12 nM

## VSEEYLDLRLT [11-mer peptide, FGFR4 (754)]
Panel of 50 SH2 domains
  Other SH2 domains bound (additional array-positive SH2 domains): SHD
[1]
  Array positive: No (Peptide spots with average intensity values between 1X-3X the array mean were defined as ‘indeterminate’. Those with intensities below 1X mean were defined as array negative)
